One block for each molecule: values may come before it.
What was measured:
U937 cells [1] = assay: F-cAMP (Alexa 488-cAMP) efflux assay / high throughput flow cytometry screen; format: cell-based, human; conditions: for Hit status in preliminary screen for cAMP efflux inhibitors: Prestwick/SPECTRUM library screen, U937 cells
Experimental: U937 cell were loaded with the analog by a method relying on osmotic lysis of pinocytic vesicles (15). After incubation, cell fluorescence decreased to a level that was close to cell autofluorescence.
Briefly, cells were concentrated and washed, with resuspension NF-RPMI (cRPMI without FBS). Cells were then resuspended in an NF-RPMI hypertonic solution containing poly(ethylene glycol) 1,000 (PEG), sucrose, and Alexa Fluor® 488 8-(6-aminohexyl) aminoadenosine 3′,5′-cyclicmonophosphate, bis(triethylammonium) salt, hereafter referred to as F-cAMP, to give a final concentration of 4.76 mM F-cAMP. Cells were incubated for 10 min, room temperature, then centrifuged and resuspended in hypotonic solution (60% cRPMI, 40% sterile water) for 2 min at room temperature to complete the F-cAMP loading. The cells were then washed and resuspended in cRPMI at a final concentration of 4×10^5 cells/mL, and allowed to equilibrate for 2 hours in a 37° C., 5% CO2/95% air incubator.
The remainder of the cells was incubated (37° C., 5% CO2/95% air) in the presence of dimethyl sulfoxide (DMSO) vehicle or compounds overnight. Flow cytometry was used to measure samples, and unstained U937 cells were used to create a gate to mark viable cells. Control and experimental samples were excited with a 488 nm laser and analyzed for FL-1 median fluorescence intensity (MFI) within that gate.
For the high throughput screening assay (HTS), U937 cells were loaded with F-cAMP as described above. Solutions were added to 384-well plates (Greiner 784201) with a Biomek FX Multichannel system (Beckman-Coulter) and/or MicroFlo as follows: 1) 5 μL cRPMI; 2) 100 nL compounds from the Prestwick Chemical Library or Spectrum 2000 Library in DMSO were delivered by pintool (V&P Scientific, San Diego, Calif.), final DMSO concentration=1%; 3) 5 μL F-cAMP cells. Negative control wells contained stained cells with 1% DMSO only. For positive controls, F-cAMP cells were treated with 200 μM MK-571. The final concentration for all conditions was 2000 cells/well. The plates were sealed with foil, and incubated (37° C., 5% CO2/95% air) inverted overnight.
After incubation, the 384-well sample plates were analyzed by CyAn flow cytometers (Beckman-Coulter) configured with HyperCyt high throughput auto-sampler systems (IntelliCyt Albuquerque, N. Mex.). The samples were interrogated with 488 nm lasers to assess FL-1 MCI levels.
Data from the HTS were analyzed with HyperView software (IntelliCyt, Albuquerque, N. Mex.) and gated on untreated, live cell populations and then time-gated to separate data per well. FL-1 MCI values for the samples were analyzed per plate. Those samples which reported MCI values≥2 standard deviations above the plate mean negative control values were considered “hit” compounds.
To validate the identified samples and decrease the number of potential false-positive compounds, the hit compounds were assayed in a high-throughput dose response assay. This assay set up 384-well plates with the same volumes of F-cAMP cells, cRPMI, and DMSO/compounds as in the HTS, with the plate formats containing 10-well dose responses for each hit compound, at final concentrations ranging 30 μM to 4 nM. These plates were also foil-sealed, and incubated inverted overnight. Post-incubation, the dose response plates were analyzed by high throughput flow cytometry, as above. […]

697 cells = assay: Cross-cell line test for cAMP efflux (F-cAMP); format: cell-based, human; conditions: 697, 37° C., 100 μM MK-571, overnight
Experimental: (§1) To study the differences in cAMP-removal, cells were loaded with a fluorescent cAMP-analog, and incubated under different conditions: low temperature (4° C.) used to estimate the passive probe “leakage”, and physiological temperature (37° C.) used to assess active removal of the probe.
(§2) Briefly, 15 million cells were loaded with F-cAMP via the osmotic process detailed above. Small volumes of cells were analyzed by flow cytometry post-staining to determine baseline fluorescence values based on MFI. […] The remaining cells were split in half, and one group was treated with a final concentration of 100 μM MK-571, while the other received DMSO-only at an equal volume. These two groups of cells were incubated ˜24 hr according to standard tissue culture conditions (37° C., 5% CO2/95% air). After incubation, cells were analyzed with flow cytometry for FL-1 MFI.
(§3) Because cells loaded with F-cAMP were washed, the resulting concentration gradient could have caused a “passive leak” of the probe. All 6 cell lines appeared to efflux F-cAMP, although to different extents (FIG. 7A a). After incubation at 4° C., the cells lost 20-60% of their fluorescence from the initial F-cAMP loading.

MHH Call 3 cells = assay: Cross-cell line test for cAMP efflux (F-cAMP); format: cell-based, human; conditions: MHH Call 3, 37° C., 100 μM MK-571, overnight
Experimental: as §1, §2, §3

Sup B15 cells = assay: Cross-cell line test for cAMP efflux (F-cAMP); format: cell-based, human; conditions: Sup B15, 37° C., 100 μM MK-571, overnight
Experimental: as §1, §2, §3

Nalm 6 cells = assay: Cross-cell line test for cAMP efflux (F-cAMP); format: cell-based, human; conditions: Nalm 6, 37° C., 100 μM MK-571, overnight
Experimental: as §1, §2, §3

Reh cells = assay: Cross-cell line test for cAMP efflux (F-cAMP); format: cell-based, human; conditions: 37° C., 100 μM MK-571, overnight
Experimental: as §1, §2, §3

RS4; 11 cells = assay: Cross-cell line test for cAMP efflux (F-cAMP); format: cell-based, human; conditions: 11, 37° C., 100 μM MK-571, overnight
Experimental: as §1, §2, §3

U937 cells [2] = assay: Annexin V-PE/7-AAD apoptosis assay; format: cell-based; conditions: Homo sapiens
Text: To detect apoptosis we used an Annexin V and 7-amino-actinomycin D (7-AAD) based assay. Annexin V is a protein that has high binding affinity to phosphatidylserine, which is translocated from the inner to the outer leaflet of the membrane during early apoptosis. 7-AAD is a DNA dye that stains cells only when the cell membranes are permeable. Thus, double positive events are considered to represent end stage apoptosis and dead cells. […] The results obtained using this assay correlated well with the results of other assays:
Six-well plates were set up with dose responses for each of the 11 hit compounds (artemisinin, artemether, artesunate, dihydroartemisinin, parthenolide, patulin, clioquinol, cryptotanshinone, pyrithione zinc, harmalol, quinalizarin). Each well contained 2.5×10^6 U937 cells in 5 mL cRPMI. To each well, 15 μL of compound in DMSO (or vehicle control) was fTadded, giving final concentrations of 0, 300 nM, and 1, 3, 10, and 30 […] were incubated overnight, at 37° C., 5% CO2/95% air. The compound effects on apoptosis were assessed with an Annexin V-PE/7-amino-actinomycin D (7-AAD) kit (BD Pharmingen™ cat. no. 559763), according to manufacturer protocol, and data were collected with a BD Accuri™ C6 flow cytometer. A gate was set for live cells, and 10,000 gated events were collected per sample. FL-2 versus FL-3 channel dot plots were divided into quadrants and were used to determine percentages of gated cells that were Annexin V^−/7-AAD^− (live, healthy cells), Annexin V^+/7-AAD^− (early apoptosis), or Annexin V^+/7-AAD^+ (late, full apoptosis).
[…] The samples were plotted as Annexin V vs 7-AAD and quadrant-gated. Annexin V^+, 7-AAD^− events are indicative of early apoptosis, in which phosphatidyl serine has flipped to the outer leaflet of the cell membrane. Annexin V^+, 7-AAD^+ (double positive) events indicate cell and nuclear membrane permeabilization, marking late apoptotic events or complete cell death.

[3] = system: healthy human peripheral blood mononuclear cells (PBMCs); assay: Cell TiterGlo luminescent cell viability assay in PBMCs
U937 cells [4] = assay: Propidium iodide cell cycle assay; conditions: 24 hour incubation, dose response
U937 cells [5] = assay: CellTrace CFSE cell proliferation assay; conditions: 3 μM, 48 hr
[6] = U-937, U937 cells, overnight incubation, dose responses 300 nM to 30 μM, read-out: Calculated EC50 values from Annexin V, 7-AAD double positive events
[7] = U-937, read-out: Calculated EC50 values from Annexin V, 7-AAD double positive events

SMILES: CO[C@H]1O[C@@H]2O[C@@]3(C)CC[C@H]4[C@H](C)CC[C@@H]([C@H]1C)[C@@]24OO3 [Artemether, artemether]
EC50 (U937 cells [2]; [6]): 106 µM

SMILES: [O-][n+]1ccccc1[S-].[O-][n+]1ccccc1[S-].[Zn+2] [Pyrithione zinc, pyrithione zinc]
Selectivity: concentrations required by leukemic cells versus PBMCs (calculated EC50 values) ([3]; viability EC50, leukemic cell lines vs PBMCs): exception

SMILES: CC1=NCCc2c1[nH]c1cc(O)ccc21 [Harmalol, harmalol]
EC50 (U937 cells [2]; [6]): 283 µM

SMILES: CC1=C(CC(=O)O)c2cc(F)ccc2/C1=C\c1ccc([S+](C)[O-])cc1 (stereo not drawn) [sulindac]
Hit status in preliminary screen for cAMP efflux inhibitors (U937 cells [1]): did not come out as hits

SMILES: C[C@H]1[C@H](OC(=O)CCC(=O)O)O[C@@H]2O[C@@]3(C)CC[C@H]4[C@H](C)CC[C@@H]1[C@@]24OO3 [Artesunate, artesunate]
Effect on cell cycle (PI staining) (U937 cells [4]): increased percentages of cells in G1 or apoptosis in a dose-dependent manner
EC50 (U937 cells [2]; [6]): 99.1 µM

SMILES: O=C(O)Cc1ccccc1Nc1c(Cl)cccc1Cl [diclofenac]
Hit status in preliminary screen for cAMP efflux inhibitors (U937 cells [1]): did not come out as hits

SMILES: CC[C@@]1(O)C(=O)OCc2c1cc1n(c2=O)Cc2cc3c(CN(C)C)c(O)ccc3nc2-1 [topotecan]
Hit status in preliminary screen for cAMP efflux inhibitors (U937 cells [1]): did not come out as hits

SMILES: C[C@@H]1CC[C@H]2[C@@H](C)C(=O)O[C@@H]3O[C@@]4(C)CC[C@@H]1[C@]32OO4 [Artemisinin, artemisinin]
EC50 (U937 cells [2]; [6]): 249 µM

SMILES: C[C@H]1COC2=C1C(=O)C(=O)c1c2ccc2c1CCCC2(C)C [Cryptotanshinone, cryptotanshinone]
EC50 ([3]; Homo sapiens, PBMC, read-out: EC50 for decreased PBMC viability): ~12 µM
EC50 (U937 cells [2]; [7]): 53.5 µM

SMILES: O=C1C=C2C(=CCOC2O)O1 (stereo not drawn) [Patulin, patulin]
Effect on cell division (CFSE fluorescence) (U937 cells [5]): arrest of cell division within 48 hr
EC50 (U937 cells [2]; [7]): 3.29 µM

Continued, in another order:

EC50 (U937 cells [1]; Homo sapiens, U-937, read-out: EC50 for inhibition of cAMP efflux calculated in assay development, U937 cells loaded with F-cAMP, overnight): 31 µM
SMILES: CN(C)C(=O)CCSC(SCCC(=O)O)c1cccc(/C=C/c2ccc3ccc(Cl)cc3n2)c1 (stereo not drawn) [MK-571]
Effect on cAMP efflux (U937 cells [1]; U937 cells loaded with F-cAMP, overnight): down-modulated cAMP efflux in a dose-dependent manner
F-cAMP probe removed in the presence of MK-571 (697 cells): 60-70%
F-cAMP efflux in the presence of MK-571 (MHH Call 3 cells): blocked completely
F-cAMP efflux in the presence of MK-571 (Sup B15 cells): blocked completely
F-cAMP probe removed in the presence of MK-571 (Nalm 6 cells): 60-70%
F-cAMP probe removed in the presence of MK-571 (Reh cells): 30-40%
F-cAMP probe removed in the presence of MK-571 (RS4; 11 cells): 30-40%

EC50 (U937 cells [2]; [6]): 76.6 µM
SMILES: Oc1c(I)cc(Cl)c2cccnc12 [Clioquinol, clioquinol]

EC50 (U937 cells [2]; [6]): 172 µM
SMILES: O=C1c2ccc(O)c(O)c2C(=O)c2c(O)ccc(O)c21 [Quinalizarin, quinalizarin]

EC50 (U937 cells [2]; [6]): 55.7 µM
SMILES: C[C@H]1[C@@H](O)O[C@@H]2O[C@@]3(C)CC[C@H]4[C@H](C)CC[C@@H]1[C@@]24OO3 [Dihydroartemisinin, dihydroartemisinin]
